102 compounds from ChEMBL document CHEMBL3507680, “University of Dundee, Gates Library screen for HepG2 cell viability” can be followed below.

The nature of the data set: Human HepG2 cell viability assay in 384 well format. The conditions noted are these: HepG2 cells, read-out: Inhibition. Type of data set: toxicity, cell-based. Set-up: dose 125 nL, time 70.5 hour; concentration not given beside the values.

For `CCSCc1csc(-c2ccc(S(C)(=O)=O)cc2)n1`, the cytotoxicity at 70.5 h is -2.67%.
As for `COc1ccc(Cl)cc1CCNC(=O)NCc1ncnn1C`, the figure is -13.1%.
As for `COc1cc(C)ccc1OCC(=O)NS(=O)(=O)c1cccnc1`, the figure is -3.71%; as for `CC(C)(C)c1nccc(N2CCCCC2CCNS(C)(=O)=O)n1` (configuration not stated), 2.95%.
In the case of `CCc1noc(Cn2c(=O)c3c(C(F)(F)F)cc(C)nc3n2C)n1`, the cytotoxicity at 70.5 h is 19.2%.
As for `CCS(=O)(=O)NCC(=O)NC(c1cc(C)sc1C)C(C)C` (configuration not stated), the figure is -0.761%; as for `Cc1cc(Cn2c(=O)c3c(C(F)(F)F)cc(C)nc3n2C)on1`, -3.01%.
As for `COc1cccc(OC)c1CC(=O)NC(C#N)c1ccsc1` (configuration not stated), the figure is -12.5%; as for `N#CC(NC(=O)CNC(=O)c1ccccc1)c1ccsc1` (configuration not stated), -3.11%.
Regarding `Cc1cc(C(NC(=O)CNS(C)(=O)=O)C(C)C)c(C)s1` (configuration not stated), the cytotoxicity at 70.5 h stood at 1.39%.
`COc1cc(C)ccc1OCCC(=O)N1CCCC(n2cncn2)C1` (configuration not stated): the cytotoxicity at 70.5 h was -9.18%.
In the case of `CC(C)COc1cncc(N2CCCN(CC(F)(F)F)CC2)n1`, the cytotoxicity at 70.5 h was -5.33%.
As for `Cc1nc2n(n1)CC(NCc1c(Cl)ccc3cccnc13)CC2` (configuration not stated), the figure is -9.95%; as for `O=S(=O)(NCCc1cn2ccccc2n1)N1CCOCC1`, -7.24%; as for `CC(NC(=O)N1CCCCCC1)c1ccc(S(N)(=O)=O)cc1` (configuration not stated), -7.46%.
As for `CC(NC(=O)N1CCC1)c1ccc(S(N)(=O)=O)cc1` (configuration not stated), the figure is -7.27%.
Turning to `Cc1noc(C2CCN(Cn3cc(Cl)cn3)CC2)n1`, the cytotoxicity at 70.5 h was -4.35%.
For `CC(NC(=O)N1CCCN(C)CC1)c1ccc(S(N)(=O)=O)cc1` (configuration not stated), the cytotoxicity at 70.5 h is -4.13%.
As for `NC(=O)C1CCN(c2ccc(C(=O)N3CCc4ccccc43)cn2)C1` (configuration not stated), the figure is -4.05%; as for `COc1ccc(CCNC(=O)c2ccc(=O)n(C)c2)c(Cl)c1`, -7.56%; as for `CC(CC(=O)c1ccccc1)NC(=O)c1ccon1` (configuration not stated), -5.06%.
As for `CCOc1ccc(Cl)cc1CCNC(=O)Cn1nc(C)ccc1=O`, the figure is 7.64%; as for `NC(=O)[C@@H]1Cc2ccccc2N1C(=O)C1CC(c2ccccc2)=NO1` (some centres not stated), 6.72%; as for `CC(C)COc1cncc(N2CCCN(c3ncccn3)CC2)n1`, -7.71%.
As to `CC(C)n1ccc(C(=O)OCC2CC(=O)N(Cc3ccccc3)C2)n1` (configuration not stated), the cytotoxicity at 70.5 h was -8.67%.
As for `O=C(CNC(=O)c1ccc(Cl)cc1)Nc1nccs1`, the figure is 20.2%; as for `CC(C)N1CCC(NC(=O)NCc2ccccc2)CC1`, -0.0959%; as for `Cn1c(SCc2noc(C(C)(C)C)n2)nnc1C1CCS(=O)(=O)C1` (configuration not stated), -7.06%.
As for `CC(C)CN1CCC(NC(=O)NCCC(=O)NCc2ccccc2)CC1`, the figure is -2.46%; as for `Cc1noc(C)c1CS(=O)(=O)CC(=O)NCCc1ccccc1`, 15.9%; as for `COCCCC(=O)Nc1[nH]nc(-c2ccncc2)c1C`, -3.19%.
The same measure for `CC(C)(CNC(=O)C1CCCN(C(N)=O)C1)c1cccc(Cl)c1` (configuration not stated): 9.61%; for `NC(=O)Nc1cccc(CNC(=O)CCCOCc2ccccc2)c1`: 2.63%; for `CCc1[nH]ncc1C(=O)N1CCN(c2nccc(OC)n2)CC1`: -3.61%.
With `Cc1nc2n(n1)CC(NCc1ccccc1OCC(=O)N(C)C)CC2` (configuration not stated), the cytotoxicity at 70.5 h was -3.73%.
For `Cn1nc2c(cc1=O)CN(CCCOc1ccc(C#N)cc1)CC2`, the cytotoxicity at 70.5 h was -5.17%.
As for `CC(C)N1CCC(NC(=O)NCc2cccnc2)C1` (configuration not stated), the cytotoxicity at 70.5 h is -1.38%.
The same measure for `Cc1ccccc1C(=O)NCCC(=O)NS(=O)(=O)c1cccnc1`: 19.3%; for `O=C(CCNC(=O)NC1CCN(C2CC2)CC1)NCc1ccccc1`: -3.29%; for `OCCN(Cc1cccnc1)c1ccc(Cl)cn1`: -2.8%.
For the compound `CCc1nc2n(n1)CC(NCc1ccccc1OCC(=O)NC)CC2` (configuration not stated), the cytotoxicity at 70.5 h was -2.9%.
The same measure for `COC(=O)c1oc(CNC(C)(C)c2ccc3c(c2)OCCO3)cc1C`: 20.9%.
As for `CC(C)c1cc(C(=O)N2CCN(Cc3ccc(C#N)cc3)CC2)n[nH]1`, the figure is -4.18%.
As for `COc1ccnc(N2CCN(C(=O)c3csc(C)n3)CC2)n1`, the figure is -4.93%; as for `COc1ccnc(N2CCN(C(=O)c3csnn3)CC2)n1`, -3.32%.
In the case of `Cc1cc2n(n1)CC(CNC1CCN(CCc3ccccc3)CC1)CN2` (configuration not stated), the cytotoxicity at 70.5 h worked out at 0.368%.
For `CCOc1cc(C)ccc1NS(=O)(=O)c1cc(C)c(C(=O)O)s1`, the cytotoxicity at 70.5 h was -1.53%.
As for `Cc1nc(CN2CCC(CNC(=O)C3(C)CCCC3)CC2)oc1C`, the figure is -4.66%; as for `CC(NC(=O)Nc1ccccc1CN1CCOCC1)c1nccs1` (configuration not stated), -2.17%.
The same measure for `Cc1ccsc1C(=O)NC1CCN(c2cnn(C)c2)C1=O` (configuration not stated): 17.9%.
With `Cn1cc(N2CCC(NC(=O)c3ccccc3Cl)C2=O)cn1` (configuration not stated), the cytotoxicity at 70.5 h turned out to be 1.26%.
The same measure for `Cn1cc(N2CCC(NC(=O)c3c(F)cccc3Cl)C2=O)cn1` (configuration not stated): -3.25%.
As for `CSC(C)(C)CNC(=O)NCc1cccc(-n2cncn2)c1`, the figure is -0.656%; as for `Cc1nc(CN2CCC(CNC(=O)C3CCOC3)CC2)oc1C` (configuration not stated), 16.3%; as for `CCC(CC)c1cc(CNC(=O)N2CCCN(C(C)=O)CC2)on1`, -3.25%.
Take `Cc1noc(CCCC(=O)NC(C)c2nnc3n2CCC3)n1` (configuration not stated): the cytotoxicity at 70.5 h is -4.98%.
As for `CCN1CCN(c2ccc(F)cc2C(C)NCc2cscn2)CC1` (configuration not stated), the figure is -3.66%; as for `COCc1nc(C(=O)N2CCN(c3nccc(OC)n3)CC2)cs1`, 14.1%.
As for `O=C(CCNC(=O)c1sccc1-c1ccccc1)NC1CCS(=O)(=O)C1` (configuration not stated), the figure is -9.28%; as for `O=C(CNc1cc2c(cc1Cl)OCCO2)NCC(F)(F)F`, -3.78%; as for `O=C1CC2(CCCCC2)C(=O)N1CC(O)COCc1ccccc1F` (configuration not stated), -4.1%.
As for `CCN(CC(=O)NC)S(=O)(=O)N1CCCCC1`, the figure is -7.25%.
Turning to `CCN1CCC(NC(=O)Cn2cc(C)c3ccccc32)CC1`, the cytotoxicity at 70.5 h turned out to be 8.33%.
As for `Cc1cn(CC(=O)NC2CCC3(CC2)OCCO3)c2ccccc12`, the figure is -6.58%.
As for `O=C(Nc1cccc(N2CCN(CC3CC3)CC2)c1)N1CCCC1`, the figure is 0.629%; as for `CC(=O)NCCC(=O)Nc1cccc(N2CCN(CC3CC3)CC2)c1`, -0.54%.
For `CSCC(C)(O)CNC(=O)c1ccc(F)cc1Cl` (configuration not stated), the cytotoxicity at 70.5 h was found to be 0.551%.
As for `Cc1cnc(NC(=O)N2CCC(N3CCCCC3=O)CC2)s1`, the figure is -1.3%.
The same measure for `OC(CN(Cc1ccccc1)Cc1ccccn1)c1cccs1` (configuration not stated): -11%; for `OC(CN(Cc1ccccc1)Cc1cscn1)c1cccs1` (configuration not stated): -2.62%.
As for `Cc1nc(C)c(C(=O)NCC(c2ccccc2Cl)N2CCOCC2)s1` (configuration not stated), the figure is 19.6%; as for `Cc1cc(C(=O)NCC(c2ccccc2Cl)N2CCOCC2)on1` (configuration not stated), -1.66%; as for `Cc1[nH]ncc1CCCNC(=O)Nc1ccc(S(C)(=O)=O)nc1`, 10.3%.
`O=C(c1cccnc1-n1cncn1)N1CCN(CC(F)(F)F)CC1`: the cytotoxicity at 70.5 h is -0.957%.
The same measure for `Cc1nnc(NCC2(c3ccccc3)CCOCC2)c(C#N)c1C`: 16.6%; for `CNC(=O)COc1nc(C(C)(C)C)no1`: 3.09%; for `CN(Cc1noc(C(C)(C)C)n1)CC1CCN(CCO)CC1`: -3.04%.
For `CCOCC(O)CN1CCN(C(=O)c2ccncc2)CC1` (configuration not stated), the cytotoxicity at 70.5 h was -3.55%.
As for `Cc1ccc(C(=O)NCC2(O)CCOCC2)cc1F`, the figure is -1.08%.
As for `COc1ccccc1C1(CNc2nnc(C)c(C)c2C#N)CCCC1`, the figure is 2.69%; as for `CCN(CC(C)C#N)C(=O)CSc1ccc(C(F)(F)F)cn1` (configuration not stated), -3.1%.
As for `CC(C)CC(=O)NCc1cccc(OCCN(C)C2CCOCC2)c1`, the cytotoxicity at 70.5 h is -4.5%.
Turning to `CN1CCCN(C(=O)NCCNc2ncccc2C#N)CC1`, the cytotoxicity at 70.5 h was -2.49%.
As for `CC(C)COC(=O)N1CCCN(Cc2nnc(C(C)(C)C)o2)CC1`, the figure is -4.02%; as for `CN(Cc1ccc(C#N)cc1)C(=O)c1ccnc(OC2CCC2)c1`, 16.3%; as for `Cc1ccc(CN(C)C(=O)CN2CCCCC2Cn2cncn2)o1` (configuration not stated), 17.9%.
The same measure for `CCOCC(O)CN1CCN(C(=O)c2ccsc2)CC1` (configuration not stated): 17.1%; for `Cc1cc2n(n1)CC(CNCCNC(=O)c1ccc(F)cc1)CN2` (configuration not stated): -4.35%.
As to `CC(C)c1noc(CNC2CCCN(Cc3noc(C4CC4)n3)C2)n1` (configuration not stated), the cytotoxicity at 70.5 h was -11.4%.
The same measure for `Cc1csc(CN(C)C(=O)Nc2cnn(CC3CCCO3)c2)n1` (configuration not stated): -12.7%; for `CN1CCC(CN(C)S(=O)(=O)CC2CCCCC2)CC1`: 11.1%; for `O=C(CC1=CCCCC1)Nc1ccc(CN2C(=O)CCC2=O)cc1`: -3.73%.
As to `CC(C)N1CCC(Nc2ccn(C)n2)C1=O` (configuration not stated), the cytotoxicity at 70.5 h was -3.38%.
For the compound `CCC1c2ccccc2CCN1C(=O)c1ccc(OC)nn1` (configuration not stated), the cytotoxicity at 70.5 h is -0.324%.
As for `Cn1ccc(C(=O)N(CC(F)F)c2cccc(Cl)c2)cc1=O`, the figure is -2.11%; as for `CN1CCCC(N2CCN(c3nc4ccccn4c3C#N)CC2)C1` (configuration not stated), 11.1%; as for `CS(=O)(=O)CCN(Cc1cccc(O)c1)C1CCC(O)CC1` (configuration not stated), -4.64%.
As for `CCC1c2ccccc2CCN1C(=O)c1ccnc(C(=O)OC)c1` (configuration not stated), the figure is -1.37%; as for `CN(Cc1cnn(C)c1)S(=O)(=O)N1CCCC1c1ccco1` (configuration not stated), -0.954%; as for `Cc1cnn(CC2CCCCN2C(=O)c2ccc(C#N)c(C)n2)c1` (configuration not stated), -0.947%.
As for `COc1ccnc(N(C)Cc2ccccc2OC(F)(F)F)n1`, the figure is -1.49%; as for `c1cc(CNCc2ccnc(N3CCCC3)c2)c2c(c1)OCCO2`, 5.3%.
